One assay deals with Trx. As to the kind of experiment: Western blotting of Trx expression. The class given is cell-based, human. The conditions noted are these: 48 h. On the procedure: (§1) Cells were treated with IQ9 (clonogenic IC50 concentrations) for 48 h, harvested, and resuspended in 1 mL of RIPA buffer (Sigma, UK) supplemented with 1X Halt phosphatase inhibitor cocktail, protease inhibitor cocktail, and EDTA. Samples were run on an SDS-polyacrylamide gel and transferred onto a 0.2 μm nitrocellulose membrane (GE Healthcare). The membrane was then blocked using 5% milk powder in 0.1% PBS/ Tween20, for 1 h at room temperature and then incubated with primary antibody overnight at 4 °C. Anti-β-actin antibody (Abcam) was used as a loading control. Primary antibodies were rabbit anti-human Trx (Abcam; 1:1000), mouse anti-human antibody (Abcam; 1:500), and rabbit anti-human Txnip (Abcam; 1:500). For Trx and Txnip, bands were detected using an Odyssey FC Imager (LI-COR). Images were obtained and fluorescence intensity quantified using Image Studio Software (version 4). The signals for Trx and Txnip were normalised against β-actin. For TrxR, bands were detected using an Amersham Enhanced Chemiluminescence system (GE Healthcare).
For orientation: In western blotting, separated proteins are transferred to a membrane and probed.

The next assay deals with T47D cells. As to the kind of experiment: Cell proliferation assay (cell count). It counts as cell-based. The conditions noted are these: Homo sapiens, 48 h. On the procedure: 1 × 10^5 cells (2 × 10^5 for T47D’s) were seeded, in triplicate, in 6-well plates and incubated overnight before being treated with IQ9 (0–5000 nM) or doxorubicin (400–600 nM) (positive control and comparator). Total cells were counted after 48 h using a haemocytometer. The total cell count in drug treatment wells was normalised as a percentage of the total cells in vehicle control wells.
IC50 values were calculated from dose-response curves using an SPSS regression model between inhibition ratios and concentration gradients. The radiobiological parameters: alpha (α), beta (β), α/β ratio, and surviving fraction at 2 Gy (SF2) were extracted from the survival curves fitted using the LQ model. All results are presented as average ± standard deviation (SD) of three independent experiments, each performed in triplicate. Data were analysed using the student T-test and ANOVA one-way test. Statistical analysis was performed using SPSS 23.0 software. Values of P < 0.05 were considered statistically significant.

Another assay deals with TrxR. Briefly: Western blotting of TrxR expression. The class given is cell-based, human. The conditions noted are these: clonogenic IC50 concentration, 48 h. On the procedure:
as §1

The subject of assay [1] is triple-negative breast cancer cells. Briefly: Drug-radiation combination clonogenic survival, stated for TNBC cells together. It counts as cell-based, human. The conditions noted are these: IQ9 for 4 h followed by irradiation, range over TNBC cell lines. On the procedure:
5 × 10^5 cells were seeded in T25 cm^2 tissue culture flasks and incubated overnight. The sub-confluent cells were then treated either for 4-h or 48-h with IQ9 (0–5000 nM) or doxorubicin (10–20 nM). Following drug treatment, cells were collected, counted, and plated at low-density, in triplicate, and incubated, at 37 °C, 5% CO2, undisturbed, for 2 weeks for TNBC cells and 3 weeks for luminal cells, for colony formation. Colonies were fixed (50% methanol in 0.9% saline solution) and stained (0.5% crystal violet solution). Colonies consisting of more than 50 cells were confirmed by microscopy and scored as survivors. The plating efficiency (PE) was calculated as numbers of colonies formed/ numbers of cells plated. For single-agent treatment, drug or radiation, the surviving fraction was calculated as: number of colonies formed/ (numbers of cell plated x PE). […]
Sub-confluent cells were irradiated with a dose of 2, 4, 6, or 8 Gy (at a dose rate of 0.87 Gy/min) using an RS225 x-ray cabinet irradiation system (Xstrahl Limited, UK), fitted with a 0.5 mm Cu filter and run at 195 kV, 10 mA. […] The sensitiser enhancement ratio (SER), calculated by dividing the X-ray dose causing 1% cell survival in the absence of drug treatment by the X-ray dose leading to 1% cell survival in the presence of drug treatment, was used to evaluate the degree of radiosensitisation.

As a reminder, the IC50 is the concentration needed to halve the response being measured. Read a high IC50 as a need for much substance. With `COC1=CC(=O)c2c(c(COc3c(F)cc(F)cc3F)cn2C)C1=O` [IQ9], the “expression of Trx” value in the assay on Trx (MDA-MB-231, clonogenic IC50 concentration, P = 0.003) is given as “increased expression”; in the assay on Trx (the other four cell lines (MDA-MB-468, MDA-MB-436, T47D, MCF-7), clonogenic IC50 concentration), “no effect”. In the assay with T47D cells, this molecule displayed a 50% inhibitory concentration (IC50) of 1430 ± 255 nM. The “expression of TrxR” value in the assay with TrxR (TNBC cells) is on record as “little effect, if any”; in the assay on TrxR (luminal cells), “Increased expression”. Further, the “SER values (sensitiser enhancement ratios)” value in assay [1] is 1.20–1.43.

(Values after PMC8426295, “Cytotoxic and radiosensitising effects of a novel thioredoxin reductase inhibitor in breast cancer” (Investigational New Drugs, 2021).)
